Reference: patent US7803797B2, “Substituted arylcyclopentenes as therapeutic agents” (Allergan, Inc., priority 2008, dated 2010)

Tests used:
Format in all cases: in vivo
[1] = system: laser-induced hypertensive monkeys; assay: Intraocular pressure (IOP) reduction in laser-induced hypertensive monkeys
normotensive dogs = assay: Intraocular pressure (IOP) reduction in normotensive dogs
Procedure: Compounds 14a, 14b, 16a, 16b. 22a, 22b, 33a, 33b, 34a, 34b, 35a, 35b, 46a, 46b, 51a, 51 b, 58a, 58b, 69a, 69b, 70a and 70b from above are tested in vivo to measure its ability to reduce intraocular pressure. Compound 14a is tested in normotensive dogs.

[2] = system: lashes and adjacent hairs of the eyelids; assay: Clinical observation of lashes in glaucoma patients treated in one eye; conditions: glaucoma patients treated in only one eye
Source text: In the course of treating patients having glaucoma, treatment may only be appropriate in one eye. […] The lash appearance on the lids of the treated eyes would have appeared quite attractive if it represented a bilateral phenomenon. As a result of its asymmetric nature, the long lashes on one side could be construed as disturbing from a cosmetic standpoint. A systemic examination was preformed as a result of the asymmetric phenomenon. It soon became apparent that this altered appearance was not an isolated finding. […] Definite differences could be identified to varying degrees in the lashes and adjacent hairs of all patients who were taking the drug on a unilateral basis for longer than 6 months.
The changes in the lashes were apparent on gross inspection in several patients once attention was focused on the issue. In those with light colored hair and lashes, the differences were only seen easily with the aid of the high magnification and lighting capabilities of the slit lamp biomicroscope. In the course of glaucoma follow-up examination, attention is generally immediately focused on the eye itself. As a result of the high power magnification needed only one eye is seen at a time and the eye is seen at a high enough power that the lashes are not in focus. […]

SMILES	IOP change from baseline [1]	intraocular pressure (IOP) change from baseline (normotensive dogs)	lash appearance, treated eye versus non-treated eye [2]
O=C(OCCN1CCOCC1)c1ccc(CCC[C@@H]2[C@@H](COc3cc(Cl)cc(CO)c3)CC[C@H]2Cl)s1 [51 b]	decreases from baseline	decreases from baseline	–
O=C(CCC/C=C\C[C@@H]1[C@@H](COc2cc(Cl)cc(CCO)c2)[C@H](O)C[C@H]1Cl)OCCO [Compound 14a]	decreases from baseline	decreases from baseline	–
O=C(CCC/C=C\C[C@@H]1[C@@H](COc2cc(Cl)cc(CCO)c2)[C@H](O)C[C@H]1Cl)OCCN1CCOCC1 [Compound 14b]	decreases from baseline	decreases from baseline	–
CC(=O)OCCc1cc(Cl)cc(OC[C@@H]2[C@@H](C/C=C\CCCC(=O)OCCO)[C@H](Cl)C[C@H]2O)c1 [Compound 16a]	decreases from baseline	decreases from baseline	–
CC(=O)OCCc1cc(Cl)cc(OC[C@@H]2[C@@H](C/C=C\CCCC(=O)OCCN3CCOCC3)[C@H](Cl)C[C@H]2O)c1 [Compound 16b]	decreases from baseline	decreases from baseline	–
COCc1cc(Cl)cc(OC[C@@H]2[C@@H](C/C=C\CCCC(=O)OCCO)[C@H](Cl)C[C@H]2O)c1 [Compound 22a]	decreases from baseline	decreases from baseline	–
COCc1cc(Cl)cc(OC[C@@H]2[C@@H](C/C=C\CCCC(=O)OCCN3CCOCC3)[C@H](Cl)C[C@H]2O)c1 [Compound 22b]	decreases from baseline	decreases from baseline	–
O=C(OCCO)c1ccc(CCC[C@@H]2[C@@H](COc3cc(Cl)cc(Cl)c3)[C@H](O)C[C@H]2Cl)s1 [Compound 33a]	decreases from baseline	decreases from baseline	–
O=C(OCCN1CCOCC1)c1ccc(CCC[C@@H]2[C@@H](COc3cc(Cl)cc(Cl)c3)[C@H](O)C[C@H]2Cl)s1 [Compound 33b]	decreases from baseline	decreases from baseline	–
Cc1cc(C)cc(OC[C@@H]2[C@@H](CCCc3ccc(C(=O)OCCO)s3)[C@H](Cl)C[C@H]2O)c1 [Compound 35a]	decreases from baseline	decreases from baseline	–
Cc1cc(C)cc(OC[C@@H]2[C@@H](CCCc3ccc(C(=O)OCCN4CCOCC4)s3)[C@H](Cl)C[C@H]2O)c1 [Compound 35b]	decreases from baseline	decreases from baseline	–
O=C(OCCO)c1ccc(CCC[C@H]2C(=O)CC[C@@H]2COc2cc(Cl)cc(CO)c2)s1 [Compound 46a]	decreases from baseline	decreases from baseline	–
O=C(OCCN1CCOCC1)c1ccc(CCC[C@H]2C(=O)CC[C@@H]2COc2cc(Cl)cc(CO)c2)s1 [Compound 46b]	decreases from baseline	decreases from baseline	–
O=C(OCCO)c1ccc(CCC[C@@H]2[C@@H](COc3cc(Cl)cc(CO)c3)CC[C@H]2Cl)s1 [Compound 51a]	decreases from baseline	decreases from baseline	–
N#C[C@@H]1C[C@@H](O)[C@H](COc2cc(Cl)cc(Cl)c2)[C@H]1CCCc1ccc(C(=O)OCCO)s1 [Compound 58a]	decreases from baseline	decreases from baseline	–
N#C[C@@H]1C[C@@H](O)[C@H](COc2cc(Cl)cc(Cl)c2)[C@H]1CCCc1ccc(C(=O)OCCN2CCOCC2)s1 [Compound 58b]	decreases from baseline	decreases from baseline	–
O=C(OCCO)c1ccc(CCCC2=CC[C@@H](O)[C@@H]2COc2cc(Cl)cc(Cl)c2)s1 [Compound 69a]	decreases from baseline	decreases from baseline	–
O=C(OCCN1CCOCC1)c1ccc(CCCC2=CC[C@@H](O)[C@@H]2COc2cc(Cl)cc(Cl)c2)s1 [Compound 69b]	decreases from baseline	decreases from baseline	–
O=C(OCCO)c1ccc(CCC[C@@H]2[C@@H](COc3cc(Cl)cc(Cl)c3)[C@H](O)C[C@H]2F)s1 [Compound 70a]	decreases from baseline	decreases from baseline	–
O=C(OCCN1CCOCC1)c1ccc(CCC[C@@H]2[C@@H](COc3cc(Cl)cc(Cl)c3)[C@H](O)C[C@H]2F)s1 [Compound 70b]	decreases from baseline	decreases from baseline	–
CCNC(=O)CCC/C=C\C[C@@H]1[C@@H](/C=C/[C@@H](O)CCc2ccccc2)[C@H](O)C[C@@H]1O [bimatoprost]	–	–	longer, thicker, and fuller in the treated eye than in the non-treated eye
